This passage reports PH results from US20030170310A1, “Tasteless, directly compressible, fast-dissolving complexes and pharmaceutical formulations thereof” (priority 2002, published 2003).

The nature of this data set: PH of drug and complex. The class given is physicochemical.

For `CC(C)(C(=O)O)c1ccc(C(O)CCCN2CCC(C(O)(c3ccccc3)c3ccccc3)CC2)cc1.Cl` (racemic) [Fexofenadine Hydrochloride, (±)-4-[1-hydroxy-4-[4-(hydroxydiphenylmethyl)-1-piperidinyl]-butyl]-α,α-dimethylbenzene acetic acid hydrochloride], the PH is recorded as 2.25-2.75.
